This is an account of results in ChEMBL document CHEMBL3045520, “Comparative three-dimensional quantitative structure-activity relationship study of safeners and herbicides” (J Agric Food Chem, 2000).

This assay is described as follows: Binding affinity to SafBP receptor in Zea mays (maize) seedlings by [3H]Saf(R-29148) binding assay.

For orientation: IC50 means the midpoint of a concentration-inhibition curve. `CC1(C(Cl)Cl)OCCO1` displayed an IC50 of 4400 nM.

Compound `CC1CN(C(=O)C(Cl)Cl)C(C)(C)O1` (centres undefined) returned an IC50 of 120 nM. Against the preceding compound, the IC50 is about 37-fold lower.

As for `O=C(C(Cl)Cl)N1CCOC12CCCCC2`, the IC50 stood at 6000 nM. This IC50 is about 50-fold higher than that of the compound before.

The compound `C=CCN(CC=C)C(=O)C(Cl)Cl` [DICHLORMID] came in with an IC50 of 10 nM.
